Assay results taken from patent US10456394B2, “Tetrahydroquinoline substituted hydroxamic acids as selective histone deacetylase 6 inhibitors” (THE BOARD OF TRUSTEES OF THE UNIVERSITY OF ILLINOIS, priority 2016, dated 2019).

Experiments:
Human HDAC1 = Human HDAC1 (Homo sapiens (Human), UniProt Q13547); assay: HDAC enzyme activity inhibition assay, HDAC1; type: biochemical; conditions: Table 1; mean of two experiments ± standard deviation; 10-point assay from 30 μM, 3-fold serial dilution
Human HDAC6 = Human HDAC6 (Homo sapiens (Human), UniProt Q9UBN7); assay: HDAC enzyme activity inhibition assay, HDAC6; type: biochemical; conditions: Table 1; for IC50: mean of two experiments ± standard deviation, 10-point assay from 30 μM, 3-fold serial dilution; for Selectivity HDAC1/HDAC6: ratio of IC50 values
mice with colitis = conditions: treatment begun once colitis had developed; cited from earlier work
HDAC2 = HDAC2 (Homo sapiens (Human), UniProt Q92769); assay: HDAC enzyme activity inhibition assay, HDAC2; type: biochemical; conditions: Table 2; mean of two experiments
HDAC3/NcoR2 complex = HDAC3/NcoR2 complex (Homo sapiens (Human), UniProt O15379); assay: HDAC enzyme activity inhibition assay, HDAC3; type: biochemical; conditions: Table 2; mean of two experiments
HDAC4 = HDAC4 (Homo sapiens (Human), UniProt P56524); assay: HDAC enzyme activity inhibition assay, HDAC4; type: biochemical; conditions: Table 2; mean of two experiments
HDAC5 = HDAC5 (Homo sapiens (Human), UniProt Q9UQL6); assay: HDAC enzyme activity inhibition assay, HDAC5; type: biochemical; conditions: Table 2; mean of two experiments
HDAC8 = HDAC8 (Homo sapiens (Human), UniProt Q9BY41); assay: HDAC enzyme activity inhibition assay, HDAC8; type: biochemical
HDAC9 = HDAC9 (Homo sapiens (Human), UniProt Q9UKV0); assay: HDAC enzyme activity inhibition assay, HDAC9; type: biochemical; conditions: Table 2; mean of two experiments
HDAC10 = HDAC10 (Homo sapiens (Human), UniProt Q969S8); assay: HDAC enzyme activity inhibition assay, HDAC10; type: biochemical; conditions: Table 2; mean of two experiments
HDAC11 = HDAC11 (Homo sapiens (Human), UniProt Q96DB2); assay: HDAC enzyme activity inhibition assay, HDAC11; type: biochemical; conditions: Table 2; mean of two experiments
cardiac fibroblasts = assay: Tubulin acetylation in adult rat cardiac fibroblasts; type: cell-based; conditions: in comparison to the DMSO control (FIG. 2)
Procedure: The ability of the inhibitor to induce tubulin acetylation in cardiac fibroblasts was also determined and western blot is shown below.

GBM6 cells = assay: Growth inhibition of glioblastoma cell line GBM6; type: cell-based; conditions: FIG. 4
HDAC7 = HDAC7 (Homo sapiens (Human), UniProt Q8WUI4); assay: biochemical
[1] = system: symptomatic mutant HSPB1 mice; conditions: cited from earlier work
traumatic brain injury = conditions: following traumatic brain injury in rats; cited from earlier work

Sequence of Human HDAC1 (Q13547 whole entry): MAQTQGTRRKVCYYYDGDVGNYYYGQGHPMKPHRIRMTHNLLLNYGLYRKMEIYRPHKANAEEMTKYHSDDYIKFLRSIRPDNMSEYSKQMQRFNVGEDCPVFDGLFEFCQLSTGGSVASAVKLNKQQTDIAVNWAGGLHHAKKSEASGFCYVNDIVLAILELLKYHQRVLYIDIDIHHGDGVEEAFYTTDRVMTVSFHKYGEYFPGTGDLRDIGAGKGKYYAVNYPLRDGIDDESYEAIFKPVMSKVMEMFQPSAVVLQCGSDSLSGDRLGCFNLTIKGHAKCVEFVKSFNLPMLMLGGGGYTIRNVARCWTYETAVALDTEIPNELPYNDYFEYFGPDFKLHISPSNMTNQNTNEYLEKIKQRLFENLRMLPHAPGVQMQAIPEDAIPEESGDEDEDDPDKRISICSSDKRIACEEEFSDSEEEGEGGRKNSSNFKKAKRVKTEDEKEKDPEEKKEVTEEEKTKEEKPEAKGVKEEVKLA
Sequence of Human HDAC6 (Q9UBN7 whole entry): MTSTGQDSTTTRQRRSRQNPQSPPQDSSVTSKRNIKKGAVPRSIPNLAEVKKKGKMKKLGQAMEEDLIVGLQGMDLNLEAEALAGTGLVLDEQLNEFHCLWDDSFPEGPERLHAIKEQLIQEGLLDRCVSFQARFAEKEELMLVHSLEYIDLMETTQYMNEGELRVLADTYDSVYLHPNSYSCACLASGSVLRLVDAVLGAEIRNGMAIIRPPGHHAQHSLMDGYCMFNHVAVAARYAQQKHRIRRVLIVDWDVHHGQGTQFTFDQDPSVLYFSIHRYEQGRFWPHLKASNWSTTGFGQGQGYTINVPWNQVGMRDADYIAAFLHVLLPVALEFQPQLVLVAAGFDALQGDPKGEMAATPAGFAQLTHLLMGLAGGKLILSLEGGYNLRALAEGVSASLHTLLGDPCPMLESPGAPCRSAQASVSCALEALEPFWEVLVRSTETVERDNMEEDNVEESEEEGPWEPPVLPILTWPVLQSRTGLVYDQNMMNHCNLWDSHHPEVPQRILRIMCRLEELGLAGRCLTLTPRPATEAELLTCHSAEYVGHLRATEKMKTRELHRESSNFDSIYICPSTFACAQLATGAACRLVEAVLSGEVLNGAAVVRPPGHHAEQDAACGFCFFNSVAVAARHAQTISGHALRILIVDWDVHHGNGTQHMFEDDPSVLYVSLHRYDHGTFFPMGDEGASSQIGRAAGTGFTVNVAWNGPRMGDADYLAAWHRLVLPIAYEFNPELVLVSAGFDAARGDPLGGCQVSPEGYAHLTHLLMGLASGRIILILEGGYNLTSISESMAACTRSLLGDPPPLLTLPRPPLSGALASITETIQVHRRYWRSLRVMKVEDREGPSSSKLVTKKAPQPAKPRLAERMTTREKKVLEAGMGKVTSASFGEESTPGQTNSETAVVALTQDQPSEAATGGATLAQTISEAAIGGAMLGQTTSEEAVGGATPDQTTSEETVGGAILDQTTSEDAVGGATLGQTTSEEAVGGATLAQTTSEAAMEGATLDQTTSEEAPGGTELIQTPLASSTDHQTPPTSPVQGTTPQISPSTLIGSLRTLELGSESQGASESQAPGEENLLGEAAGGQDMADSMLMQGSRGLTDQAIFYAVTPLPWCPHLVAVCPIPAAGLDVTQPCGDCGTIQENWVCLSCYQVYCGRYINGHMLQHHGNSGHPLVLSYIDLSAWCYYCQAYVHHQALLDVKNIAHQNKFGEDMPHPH
Sequence of HDAC8 (Q9BY41 whole entry): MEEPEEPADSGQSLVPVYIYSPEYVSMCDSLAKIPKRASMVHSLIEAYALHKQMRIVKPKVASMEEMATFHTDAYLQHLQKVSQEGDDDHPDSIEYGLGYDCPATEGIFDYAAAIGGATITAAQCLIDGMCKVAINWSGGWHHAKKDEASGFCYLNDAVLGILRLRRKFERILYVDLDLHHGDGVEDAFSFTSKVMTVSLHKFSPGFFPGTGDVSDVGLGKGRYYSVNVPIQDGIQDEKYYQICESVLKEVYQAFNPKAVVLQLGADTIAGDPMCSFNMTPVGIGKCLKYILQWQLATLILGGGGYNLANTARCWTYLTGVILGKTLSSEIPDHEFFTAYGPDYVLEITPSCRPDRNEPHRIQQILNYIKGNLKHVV
Sequence of HDAC10 (Q969S8 whole entry): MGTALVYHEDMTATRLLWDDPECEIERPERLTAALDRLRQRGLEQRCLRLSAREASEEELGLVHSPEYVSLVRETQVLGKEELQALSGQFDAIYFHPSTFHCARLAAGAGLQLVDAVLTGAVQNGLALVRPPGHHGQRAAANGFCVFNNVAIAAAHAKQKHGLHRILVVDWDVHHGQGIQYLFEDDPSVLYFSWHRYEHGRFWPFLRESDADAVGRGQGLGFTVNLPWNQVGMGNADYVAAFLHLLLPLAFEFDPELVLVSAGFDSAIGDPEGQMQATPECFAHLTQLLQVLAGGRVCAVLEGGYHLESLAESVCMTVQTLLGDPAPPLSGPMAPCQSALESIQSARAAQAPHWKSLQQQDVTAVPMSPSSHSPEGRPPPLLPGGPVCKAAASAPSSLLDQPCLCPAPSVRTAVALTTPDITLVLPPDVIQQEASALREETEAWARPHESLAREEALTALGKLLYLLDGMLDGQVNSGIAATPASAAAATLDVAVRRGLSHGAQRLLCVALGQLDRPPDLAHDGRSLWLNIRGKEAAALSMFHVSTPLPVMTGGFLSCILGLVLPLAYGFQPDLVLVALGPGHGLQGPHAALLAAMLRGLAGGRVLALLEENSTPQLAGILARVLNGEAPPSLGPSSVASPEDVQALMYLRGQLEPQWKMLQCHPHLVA
Sequence of HDAC11 (Q96DB2 whole entry): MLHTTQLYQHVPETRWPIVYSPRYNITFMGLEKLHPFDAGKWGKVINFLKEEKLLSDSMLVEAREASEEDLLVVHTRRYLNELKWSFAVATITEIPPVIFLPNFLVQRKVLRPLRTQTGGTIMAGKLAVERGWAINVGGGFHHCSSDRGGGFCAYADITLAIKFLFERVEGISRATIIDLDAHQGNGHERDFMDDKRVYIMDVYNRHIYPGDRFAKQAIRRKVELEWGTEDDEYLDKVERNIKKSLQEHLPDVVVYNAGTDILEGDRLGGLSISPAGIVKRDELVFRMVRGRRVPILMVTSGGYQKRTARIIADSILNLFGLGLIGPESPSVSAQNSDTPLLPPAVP
Sequence of HDAC7 (Q8WUI4 whole entry): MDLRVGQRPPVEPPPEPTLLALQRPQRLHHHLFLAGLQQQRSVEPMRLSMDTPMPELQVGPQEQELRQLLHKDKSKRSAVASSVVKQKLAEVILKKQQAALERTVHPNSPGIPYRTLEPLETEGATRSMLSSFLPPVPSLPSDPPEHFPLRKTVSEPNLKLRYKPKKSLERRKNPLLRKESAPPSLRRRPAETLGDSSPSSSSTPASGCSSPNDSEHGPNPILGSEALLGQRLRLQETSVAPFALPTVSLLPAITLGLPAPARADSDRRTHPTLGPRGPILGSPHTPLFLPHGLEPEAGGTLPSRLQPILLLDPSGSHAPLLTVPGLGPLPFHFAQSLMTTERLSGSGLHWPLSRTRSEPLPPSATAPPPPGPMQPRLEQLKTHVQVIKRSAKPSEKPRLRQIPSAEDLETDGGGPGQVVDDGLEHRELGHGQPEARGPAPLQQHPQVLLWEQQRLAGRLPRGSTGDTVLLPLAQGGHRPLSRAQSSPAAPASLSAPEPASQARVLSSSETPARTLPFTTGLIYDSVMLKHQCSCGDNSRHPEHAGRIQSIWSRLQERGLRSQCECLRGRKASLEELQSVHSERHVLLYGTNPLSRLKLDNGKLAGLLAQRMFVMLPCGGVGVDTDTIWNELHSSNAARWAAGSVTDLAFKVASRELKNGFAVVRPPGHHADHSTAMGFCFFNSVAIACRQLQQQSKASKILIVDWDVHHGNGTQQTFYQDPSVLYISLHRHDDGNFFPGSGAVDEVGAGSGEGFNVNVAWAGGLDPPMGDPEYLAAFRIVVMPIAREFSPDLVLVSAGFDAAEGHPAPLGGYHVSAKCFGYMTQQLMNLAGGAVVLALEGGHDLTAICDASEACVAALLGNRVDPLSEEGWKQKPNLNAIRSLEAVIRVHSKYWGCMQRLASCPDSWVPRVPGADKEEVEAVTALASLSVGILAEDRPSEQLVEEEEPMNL
Sequence of HDAC2 (Q92769 whole entry): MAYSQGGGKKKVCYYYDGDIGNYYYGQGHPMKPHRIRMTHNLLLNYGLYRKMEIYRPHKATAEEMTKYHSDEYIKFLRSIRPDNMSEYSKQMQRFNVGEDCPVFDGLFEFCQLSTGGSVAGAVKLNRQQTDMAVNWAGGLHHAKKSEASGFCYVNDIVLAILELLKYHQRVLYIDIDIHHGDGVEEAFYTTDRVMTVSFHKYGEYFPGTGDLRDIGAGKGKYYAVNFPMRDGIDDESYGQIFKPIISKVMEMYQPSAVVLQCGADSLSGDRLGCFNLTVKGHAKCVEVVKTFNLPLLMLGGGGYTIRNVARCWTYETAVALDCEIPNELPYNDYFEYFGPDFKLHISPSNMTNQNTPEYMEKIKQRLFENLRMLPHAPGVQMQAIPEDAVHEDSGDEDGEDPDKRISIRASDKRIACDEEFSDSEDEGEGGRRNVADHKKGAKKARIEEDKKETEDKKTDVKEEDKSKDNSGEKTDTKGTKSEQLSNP

| Structure (SMILES) | IC50 (Human HDAC1) [nM] | IC50 (Human HDAC6) [nM] | Selectivity HDAC1/HDAC6 (Human HDAC6) | further results |
| --- | --- | --- | --- | --- |
| O=C(NO)c1ccc(CN2CCCc3cc(Cl)c(F)cc32)cc1 [Example 8, 4-((6-chloro-7-fluoro-3,4-dihydroquinolin-1(2H)-yl)methyl)-N-hydroxybenzamide] | 3220 ± 85 | 4.8 ± 0.78 | 670 | – |
| O=C(NO)c1ccc(CN2CCCc3cc(Cl)c(Cl)cc32)cc1 [Example 6, 4-((6,7-dichloro-3,4-dihydroquinolin-1(2H)-yl)methyl)-N-hydroxybenzamide] | 2620 ± 115 | 3.59 ± 0.1 | 728 | – |
| O=C(NO)c1ccc(Cn2c(=O)cnc3ccccc32)cc1 [Example 19, N-hydroxy-4-((2-oxoquinoxalin-1(2H)-yl)methyl)benzamide] | 1045 ± 5 | 1.2 ± 0.3 | 870 | – |
| CC(c1ccc(C(=O)NO)cc1)N1CCCc2cc(Cl)ccc21 (centres unmarked) [Example 4, 4-(1-(6-chloro-3,4-dihydroquinolin-1(2H)-yl)ethyl)-N-hydroxybenzamide] | 8430 ± 30 | 382 ± 20.5 | 22 | – |
| CC1(C)CCc2cc(F)ccc2N1Cc1ccc(C(=O)NO)cc1 [Example 10, 4-((6-fluoro-2,2-dimethyl-3,4-dihydroquinolin-1(2H)-yl)methyl)-N-hydroxybenzamide] | 14100 ± 1900 | 161 ± 3 | 88 | – |
| CC1(C)CC(=O)N(Cc2ccc(C(=O)NO)cc2)c2ccc(Cl)cc21 [Example 11, 4-((6-chloro-4,4-dimethyl-2-oxo-3,4-dihydroquinolin-1(2H)-yl)methyl)-N-hydroxybenzamide] | 6500 ± 230 | 28.9 ± 1.1 | 225 | – |
| O=C(NO)c1ccc(CN2CCCc3ccccc32)cc1 [Example 1, 4-((3,4-dihydroquinolin-1(2H)-yl)methyl)-N-hydroxybenzamide] | 11100 | 14.6 | 760 | – |
| O=C(CCCCCCC(=O)Nc1ccc([C@H]2O[C@@H](CSc3nc(-c4ccccc4)c(-c4ccccc4)o3)C[C@@H](c3ccc(CO)cc3)O2)cc1)NO [tubacin] | – | – | – | rescue of mice with colitis (mice with colitis): able to rescue mice |
| O=C(NO)c1ccc(CN2CCCc3cc(Cl)ccc32)cc1 [Example 2, 4-((6-chloro-3,4-dihydroquinolin-1(2H)-yl)methyl)-N-hydroxybenzamide] | – | – | – | IC50 (HDAC2): > 30000 nM; IC50 (HDAC3/NcoR2 complex): > 30000 nM; IC50 (HDAC4): 11000 nM; IC50 (HDAC5): 4550 nM; IC50 (HDAC8): 3.34 µM; IC50 (HDAC9): 3460 nM; IC50 (HDAC10): > 30000 nM; IC50 (HDAC11): 746 nM; tubulin acetylation (cardiac fibroblasts): robust tubulin acetylation; growth of glioblastoma cell line (GBM6) (GBM6 cells): inhibit the growth; IC50 (HDAC7): 4.06 µM |
| CN1CCc2c(c3ccccc3n2Cc2ccc(C(=O)NO)cc2)C1 [Tubastatin A] | – | – | – | axonal transport defects and CMT phenotype [1]: corrects the axonal transport defects induced by HSPB1 mutations and rescues the CMT phenotype |
| CN(C)c1ccc(C(=O)NCCCCCNC(=O)CS)cc1 [DMA-PB, 4-dimethylamino-N-[5-(2-mercaptoacetylamino)pentyl]benzamide] | – | – | – | histone H3 acetylation and microglia inflammatory response (traumatic brain injury): increase histone H3 acetylation and reduce microglia inflammatory response |
| O=C(NO)c1ccc(CN2CCCc3cc(F)ccc32)cc1 [Example 5, 4-((6-fluoro-3,4-dihydroquinolin-1(2H)-yl)methyl)-N-hydroxybenzamide] | 5235 ± 45 | 5.05 ± 0.23 | 1037 | – |
| O=C(NO)c1ccc(CN2CC[S+]([O-])c3ccccc32)cc1 (centres unmarked) [Example 17, N-hydroxy-4-((1-oxido-2,3-dihydro-4H-benzo[b][1,4]thiazin-4-yl)methyl)benzamide] | 2600 ± 30 | 2 ± 0.1 | 1300 | – |
| O=C(NO)c1ccc(CN2CCNc3ccccc32)cc1 [Example 14, 4-((3,4-dihydroquinoxalin-1(2H)-yl)methyl)-N-hydroxybenzamide] | 8750 ± 1070 | 2.9 ± 0.4 | 3017 | – |
| CC(C)(C)OC(=O)N1CC(=O)N(Cc2ccc(C(=O)NO)cc2)c2ccccc21 [Example 18, tert-butyl 4-(4-(hydroxycarbamoyl)benzyl)-3-oxo-3,4-dihydroquinoxaline-1(2H)-carboxylate] | 22000 ± 1550 | 33.6 ± 1.9 | 653 | – |
| O=C(NO)c1ccc(CN2CCCc3cc(F)c(Cl)cc32)cc1 [Example 7, 4-((7-chloro-6-fluoro-3,4-dihydroquinolin-1(2H)-yl)methyl)-N-hydroxybenzamide] | 1865 ± 5 | 3.43 ± 0.27 | 544 | – |
| CC1(C)CCc2cc(Cl)ccc2N1Cc1ccc(C(=O)NO)cc1 [Example 9, 4-((6-chloro-2,2-dimethyl-3,4-dihydroquinolin-1(2H)-yl)methyl)-N-hydroxybenzamide] | 19600 ± 2450 | 328 ± 15.5 | 60 | – |
| CC1(C)CCN(Cc2ccc(C(=O)NO)cc2)c2ccc(F)cc21 [Example 13, 4-((6-fluoro-4,4-dimethyl-3,4-dihydroquinolin-1(2H)-yl)methyl)-N-hydroxybenzamide] | 21100 ± 800 | 45.1 ± 0.05 | 468 | – |
| O=C(NO)c1ccc(CN2CCCc3cc(Cl)ccc32)c(F)c1 [Example 3, 4-((6-chloro-3,4-dihydroquinolin-1(2H)-yl)methyl)-3-fluoro-N-hydroxybenzamide] | 21200 ± 1150 | 12.4 ± 5.5 | 1706 | – |
| CC1(C)CCN(Cc2ccc(C(=O)NO)cc2)c2ccc(Cl)cc21 [Example 12, 4-((6-chloro-4,4-dimethyl-3,4-dihydroquinolin-1(2H)-yl)methyl)-N-hydroxybenzamide] | 19500 ± 700 | 37.8 ± 4.8 | 516 | – |
| O=C(NO)c1ccc(CN2CCN(CC3CC3)c3ccccc32)cc1 [Example 15, 4-((4-(cyclopropylmethyl)-3,4-dihydroquinoxalin-1(2H)-yl)methyl)-N-hydroxybenzamide] | 6690 ± 270 | 39.3 ± 0.3 | 170 | – |
| O=C(NO)c1ccc(CN2CCSc3ccccc32)cc1 [Example 16, 4-((2,3-dihydro-4H-benzo[b][1,4]thiazin-4-yl)methyl)-N-hydroxybenzamide] | 7935 ± 25 | 6.1 ± 0.1 | 1300 | – |
